Earlier results on 1 substance are cited in patent US20050266077A1, “Resorbable matrices with coatings for delivery of bioactive compounds” (Royal Biomedical, Inc., priority 2002, published 2005).

The conditions of the data set: exothermic reaction, matrix temperatures as high as 100° C.

As for polymyxin, the inactivation of antibiotic entry is on record as “inactivated”.
